According to patent publication US20150086646A1, “ANESTHETIC NEUTRALIZATION METHODS” (Instigo Biotech Ltd., priority 2012, published 2015):

Tested on: Male rats (SD Rat)
Assay: Paw thermal sensitivity (Plantar test) in rats after regional anesthesia of the sciatic and saphenous nerves
Format: in vivo
Details: for response time relative to group 2 (anesthetic + buffer) / response time (average time before lifting the treated limb): 150 microliters at each locus; for elimination of effects of regional anesthesia (overall conclusion of the model): rat model, lidocaine HCl 2%/epinephrine 1:100,000 nerve block; for response time (average time before lifting the treated limb): 7 min after lidocaine HCl 2%/epinephrine 1:100,000, 5 minutes after administration, anesthetic + buffer group 20-35 seconds, no-anesthetic control 4-6 seconds
Description: An animal model was performed to test ROS/RNS dosages and effects on sensory anesthesia following administration of regional anesthesia, as follows. Male rats (SD Rat) weighing between 300-350 grams, were supplied by Harlan, Israel, and were randomly assigned to experimental groups. Rats were provided with sterile rodent diet with free access to drinking water. In the animal model, a testing chamber (Plantar test 3730 apparatus, made by Ugo Basile) was used in which the rats were placed on a surface which is heated and increases heat gradually. A measurement of time from placement of the rat's hind limb on the hot surface to lifting the hind limb was recorded. […] All rats were habituated to the testing facilities for five days before the model, and then introduced into the testing chamber two days prior to the testing of regional anesthesia in order to habituate rats to the apparatus. One day prior to regional anesthetic administration, baseline body weight measurements and baseline paw thermal sensitivity were recorded. Rats were randomly divided into 7 groups having 4 rats in each group. Group 1 was not administered anesthesia, but was administered saline solution as a vehicle at the time of regional anesthetic administration to groups 2-7. Groups 2 through 7 were administered lidocaine HCl 2%/epinephrine 1:100,000 ready to use solution (hereinafter, “anesthetic,”) 7 minutes before administering test items. Regional anesthetic was injected around the sciatic and saphenous nerves at a volume of 150 microliters at each site of the rat's left hind limb. Injection around the saphenous nerve was performed via local injection to/next to the adductor canal which runs on the medial aspect of the thigh between the vastus medialis and the sartorius muscles, about 2-3 cm below the inguinal canal. Injection around the sciatic nerve was performed via local injection to the sciatic notch, positioned 1 mm from the femoral shaft between the greater trochanter and ischial tuberosity pointing toward the ischium. Five minutes after injection of regional anesthetic, an assessment of the nerve blocks was performed by pinching the rat's paw to determine if the regional anesthetics were properly administered. Seven minutes after regional anesthetic administration, test agents were administered to the same loci, in a volume of 150 microliters at each locus. Groups 1 and 2 were administered a vehicle buffer as test agents. Group 3 was administered 0.1 mM hydrogen peroxide, formulated in saline solution. […] PON which was administered to rats was prepared by commercially available sodium peroxynitrite in NaCl and NaOH each at a concentration of 0.3 molar, available from Cayman Chemical. The commercially available PON was diluted to the desired concentrations for injection, by forming a suspension in 0.3M NaCl, 0.1M glycine having a pH of 10.5. All rats were tested for paw thermal sensitivity at 5, 10, 15, 20, 60 and 120 minutes after administration of the test items using the testing chamber. The results of average time before lifting the treated limb in each rat for each time point was calculated and is depicted in FIG. 2.

Structure (SMILES)	response time relative to group 2 (anesthetic + buffer) (group 3: 0.1 mM hydrogen peroxide in saline, 5, 10 and 15 minute time points)	statistical significance of the effect on response time (group 3: 0.1 mM hydrogen peroxide, 4 rats per group)	elimination of effects of regional anesthesia (overall conclusion of the model)	response time (average time before lifting the treated limb) (group 4: PON 40 mM)	response time (average time before lifting the treated limb) (group 5: PON 10 mM)	response time relative to group 2 (anesthetic + buffer) (group 6: PON 1 mM, 5 and 10 minute time points)
OO [H2O2, hydrogen peroxide]	decreased response time	not statistically significant	effective in quickly eliminating effects of regional anesthesia			
O=NOO [PON, sodium peroxynitrite]			effective in quickly eliminating effects of regional anesthesia	4 to 6 s	4 to 6 s	improved response time
